# Source: patent US9920030B2 (priority 2006, dated 2018)
# Read-outs that look alike come from different tables or passages of the source.
# Assays:
# [1] = system: Phytophthora infestans (the causal agent of tomato late blight); experiment: whole plant or invertebrate; assay type: in vivo; conditions: for pest or weed control at 40 ppm: Phytophthora infestans, 144 h, read-out: Percent Disease Control, Test B
# [2] = system: Plasmopara vilicola (the causal agent of grape downy mildew); experiment: Test A: grape downy mildew, test suspension sprayed on grape seedlings after inoculation, visual disease rating; assay type: in vivo; conditions: for pest or weed control at 40 ppm: Plasmopara, 144 h, read-out: Percent Disease Control, Test A
# Outline: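 Curative spray: spores applied first, plants kept 24 h in saturated air at 20 °C and dried before treatment, then 5 days at 20 °C plus 24 h saturated. Suspension: acetone (3% of volume) in 1:1 acetone/water, 250 ppm Trem 014, sprayed to run-off (200 ppm ≈ 500 g/ha); visual 0–100 control rating.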
# [3] = system: Phytophthora infestans (the causal agent of tomato late blight); experiment: whole plant or invertebrate; assay type: in vivo; conditions: for pest or weed control at 40 ppm: Phytophthora infestans, 96 h, read-out: Percent Disease Control, Test C
# [4] = compounds without asterisk (application rate not given), 100 = 100% disease control, 0 = no control relative to the controls
Structure (SMILES),melting point [°C],pest or weed control at 40 ppm [1] [%],pest or weed control at 40 ppm ([2]; * tested at 40 ppm) [%],pest or weed control at 40 ppm [3] [%],"Percent Disease Control, Test B ([1]; * tested at 40 ppm) [%]","Percent Disease Control, Test A ([2]; * tested at 40 ppm) [%]","Percent Disease Control, Test C ([3]; * tested at 40 ppm) [%]",also measured
"O=C(Cn1nc(C(F)(F)F)cc1C(F)(F)F)N1CCC(c2nc(C3=NOC(c4ccccc4)C3)cs2)CC1 (centres unmarked) [Compound 22, 2-[3,5-bis(trifluoromethyl)-1H-pyrazol-1-yl]-1-[4-[4-(4,5-dihydro-5-phenyl-3-isoxazolyl)-2-thiazolyl]-1-piperidinyl]ethanone]",130 to 133,100,100,99,–,–,–,–
"Cc1cc(C(F)(F)F)nn1CC(=O)N1CCC(c2nc(C3=NOC4c5ccccc5CCC34)cs2)CC1 (centres unmarked) [Compound 16, 2-[5-methyl-3-(trifluoromethyl)-1H-pyrazol-1-yl]-1-[4-[4-(3a,4,5,9b-tetrahydronaphth[2,1-d]isoxazol-3-yl)-2-thiazolyl]-1-piperidinyl]ethanone]",162 to 165,–,–,–,–,–,–,–
"CCc1cc(C(F)(F)F)nn1CC(=O)N1CCC(c2nc(C3=NOC(c4ccccc4)C3)cs2)CC1 (centres unmarked) [Compound 19, 1-[4-[4-(4,5-dihydro-5-phenyl-3-isoxazolyl)-2-thiazolyl]-1-piperidinyl]-2-[5-ethyl-3-(trifluoromethyl)-1H-pyrazol-1-yl]ethanone]",128 to 133,100,100,99,–,–,–,–
"COc1ccc(C2CC(c3csc(C4CCN(C(=O)Cn5nc(C(F)(F)F)cc5C)CC4)n3)=NO2)cc1 (centres unmarked) [Compound 18, 1-[4-[4-[4,5-dihydro-5-(4-methoxyphenyl)-3-isoxazolyl]-2-thiazolyl]-1-piperidinyl]-2-[5-methyl-3-(trifluoromethyl)-1H-pyrazol-1-yl]ethanone]",119 to 124,100,100,99,–,–,–,–
"Cc1cc(C(F)(F)F)nn1CC(=O)N1CCC(c2nc(C3=NOC(C)(c4ccccc4)C3)cs2)CC1 (centres unmarked) [Compound 15, 1-[4-[4-(4,5-dihydro-5-methyl-5-phenyl-3-isoxazolyl)-2-thiazolyl]-1-piperidinyl]-2-[5-methyl-3-(trifluoromethyl)-1H-pyrazol-1-yl]ethanone]",97 to 100,–,–,–,–,–,–,–
"Cc1cc(C(F)(F)F)nn1CC(=O)N1CCC(c2nc(C3=NO[C@@H](c4c(Cl)cccc4Cl)C3)cs2)CC1 (racemic) [Compound 135, 1-[4-[4-[(5R)-5-(2,6-dichlorophenyl)-4,5-dihydro-3-isoxazolyl]-2-thiazolyl]-1-piperidinyl]-2-[5-methyl-3-(trifluoromethyl)-1H-pyrazol-1-yl]ethanone]",–,100,100,99,–,–,–,–
Cc1cc(C(F)(F)F)nn1CC(=O)N1CCC(c2nc(C3=NOC(Cc4ccccc4S(N)(=O)=O)C3)cs2)CC1 (centres unmarked) [Compound 262],–,–,–,–,100,79,91,–
CC(=O)OCC1(c2ccccc2)CC(c2csc(C3CCN(C(=O)Cn4nc(C(F)(F)F)cc4C)CC3)n2)=NO1 (centres unmarked) [Compound 156],–,–,–,–,100,100,99,–
Cc1cc(C(F)(F)F)nn1CC(=O)N1CCC(c2nc(C3=NOC(NC(=O)c4ccccc4C(=O)[O-])C3)cs2)CC1.[Na+] (centres unmarked) [Compound 216],–,–,–,–,100,100,99,–
Cc1cc(C(F)(F)F)nn1CC(=O)N1CCC(c2nc(-c3nc4ccccc4o3)cs2)CC1 [Compound 52],–,–,–,–,–,–,–,"Percent Disease Control, Test B [1, 4]: 100%; Percent Disease Control, Test A [2, 4]: 85%; Percent Disease Control, Test C [3, 4]: 67%"
CC(=O)Oc1ccccc1C1CC(c2csc(C3CCN(C(=O)Cn4nc(C(F)(F)F)cc4C)CC3)n2)=NO1 (centres unmarked) [Compound 263],–,–,–,–,84,99,83,–
Cc1cc(C(F)(F)F)nn1CC(=O)N1CCC(c2nc(C3=NCC(c4ccccc4)CO3)cs2)CC1 (centres unmarked) [Compound 53],–,–,–,–,68,24,26,–
